Assay results taken from patent US20090012115A1 (Portola Pharmaceuticals, Inc., priority 2007, published 2009).

Assays:
P2Y12 ADP receptor = P2Y12 ADP receptor (Homo sapiens, UniProt Q9H244); settings: cited from earlier work
[1] = compared with clopidogrel; cited from earlier work
[2] = cited from earlier work
preformed thrombi = test: Thrombus stability / dethrombosis of preformed thrombi; assay type: cell-based
From the text: The addition of a TP antagonist to preformed thrombi caused dethrombosis (FIG. 5A).

platelets [3] = settings: cited from earlier work
[4] = tested on: platelet recruitment on the injured vessel wall; test: Intravital microscopy, ferric chloride injury of mesenteric arteries; assay type: in vivo, mice; settings: Example 5; for antithrombotic activity in P2Y12 heterozygous animals: P2Y12 heterozygous mice; for antithrombotic activity in wild type animals: wild type mice
Procedure: The methodology utilized is intravital microscopy. In this system, injury of the mesenteric arteries is performed by topical application of a filter paper that has been previously soaked into a ferric chloride solution. Monitoring of the recruitment of fluorescently labeled platelets on the injured vessel wall is performed in real time using an inverted fluorescent microscope connected to a computer.

leukotrienes = test: In vivo determination of the levels of leukotrienes; design: species or system mice; settings: Example 5; treated animals
From the text: In vivo monitoring of gastrointestinal bleeding and determination of the levels of leukotrienes will be performed.

platelets [5] = test: Arachidonic acid-induced platelet aggregation (light transmittance aggregometry); assay type: cell-based, human; settings: healthy volunteers and AERD patients; 1 μM, 350 nM, 100 nM; FIGS. 10A and 10B
Procedure: (§1) Light transmittance aggregometry (LTA) assays were performed by standard procedures, initiating platelet aggregation with collagen or arachidonic acid.

platelets [6] = test: Collagen-induced platelet aggregation (light transmittance aggregometry); assay type: cell-based, human; settings: for anti-aggregatory activity, collagen-induced platelet aggregation: 1 μM, 100 nM, 350 nM
Procedure: PRP-induced platelet aggregation are performed with arachidonic acid (between 200 μM and 1 mM), U46619 (a TP agonist) (between 0.5 μM and 5 μM) and collagen (around 4 μg/ml) as platelet agonists. Indomethacin and
as §1

[7] = tested on: platelets recruited on the collagen surface; test: Real time perfusion chamber thrombosis assay (whole blood over collagen-coated chamber, fluorescent platelets); assay type: cell-based, human; settings: for interaction with antithrombotic activity of clopidogrel: 12 healthy individuals on clopidogrel 75 mg/d, ifetroban spiked into whole blood, aspirin 325 mg/d over the third week; for antithrombotic activity versus aspirin: 100 nM or 350 nM spiked in vitro
Procedure: The experiment was performed by perfusing whole blood anticoagulated with factor Xa inhibitor (10 μM) through a human collagen type III-coated perfusion chamber. Platelets were fluorescently labeled in vitro using Rhodamine 6G (1.25 μg/ml final concentration), and thrombosis was monitored in real time by measuring the amount of fluorescent platelets recruited on the collagen surface using fluorescence microscopy. The results are depicted in FIG. 3.
The experiments are performed in the real time thrombosis perfusion chamber device. In this system, the real time thrombotic process triggered by perfusion of Factor Xa anticoagulated whole blood is studied using a collagen coated perfusion chamber at arterial shear rates.
A dose response study of the antithrombotic and anti-aggregatory effects of vehicle control, indomethacin (from 10 nM to 10 uM), and ifetroban (from 10 nM to 3 uM) spiked in vitro in the blood of aspirin-intolerant individuals before, and after treatment with clopidogrel (75 mg/d for a minimum of 5 days, n≧10) is performed. Experiments are performed in the real time perfusion chamber assay under arterial shear rates conditions. […] By using indomethacin we can confirm that Cox-1 inhibition indeed can provide additional antithrombotic properties; however, the intolerance prevents the use of a COX-1 inhibitor.
Real time perfusion chamber assays (RTTP) were performed using blood anticoagulated with Fxa inhibitor (10 uM 034) and perfused through collagen-coated capillaries (1100/sec). Thrombus formation on the collagen surface was monitored in real time using fluorescence microscopy to detect fluorescently labeled (R6G) platelets.

[8] = Gresele et al.; cited from earlier work
coronary arteries = coronary arteries of dogs; cited from earlier work
[9] = HOT trial, hypertensive patients, 75 mg/d vs placebo

Chain of P2Y12 ADP receptor (Q9H244 whole entry): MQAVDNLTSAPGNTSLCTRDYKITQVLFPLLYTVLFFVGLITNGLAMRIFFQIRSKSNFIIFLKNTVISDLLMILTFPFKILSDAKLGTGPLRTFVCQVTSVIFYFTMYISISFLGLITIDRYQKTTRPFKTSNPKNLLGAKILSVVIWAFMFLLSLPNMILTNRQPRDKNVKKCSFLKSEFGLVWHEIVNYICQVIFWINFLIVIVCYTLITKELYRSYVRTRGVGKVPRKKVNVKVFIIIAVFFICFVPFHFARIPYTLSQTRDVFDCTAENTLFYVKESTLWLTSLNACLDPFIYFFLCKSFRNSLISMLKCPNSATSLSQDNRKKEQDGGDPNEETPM

For `CNc1cc2[nH]c(=O)n(-c3ccc(NC(=O)NS(=O)(=O)c4ccc(Cl)s4)cc3)c(=O)c2cc1F`, the “de-aggregation of preformed thrombi” value (P2Y12 ADP receptor) is given as “de-aggregate preformed thrombi”, the “inhibition of ADP-mediated platelet aggregation” value (P2Y12 ADP receptor) is given as “reversible inhibitor” and the pharmacokinetic properties [1] is given as “superior pharmacokinetic properties to clopidogrel”.

In the case of `O=C(O)CC/C=C\CC[C@@H]1[C@@H](N2CCCCC2)[C@@H](O)C[C@@H]1OCc1ccc(-c2ccccc2)cc1` [GR 32191, [1R-[1α(Z),2β,3β,5α]]-(+)-7-[5-([1,1′-biphenyl]-4-ylmethoxy)-3-hydroxy-2-(1-piperidinyl)cyclopentyl]-4-heptenoic acid], the prevention of restenosis ([2]; CARPORT trial) is given as “lack activity in the prevention of restenosis”.

In the case of `CCCCC[C@H](O)/C=C/[C@H]1C(=O)C[C@H](O)[C@@H]1C/C=C\CCCC(=O)O` [PGD2, prostaglandin D2], the dethrombotic activity (preformed thrombi; physiological concentrations added to aspirinated blood, FIG. 5C) is reported as “induced a profound dethrombotic activity”.

In the case of `O=C(O)COc1ccc(CCNS(=O)(=O)c2ccccc2)cc1` [Sulotroban], the “restenosis following PTCA” value ([2]; M-HEART-II study, 752 patients) is listed as “no different than aspirin or placebo” and the “clinical events (death, MI or clinically important restenosis)” value ([2]; M-HEART-II study) is listed as “inferior to aspirin”.

With `CCCCC[C@H](O)/C=C/[C@@H]1[C@@H](C/C=C\CCCC(=O)O)[C@H]2CO[C@@H]1C2` [U46619] the thrombus stability (preformed thrombi; TXA2 mimetic, FIG. 5B) was “can promote thrombus stability”.

In the case of `COC(=O)[C@H](c1ccccc1Cl)N1CCc2sccc2C1` [clopidogrel], the efficacy versus aspirin ([2]; CAPRIE trial) is given as “more efficacious than aspirin” and the relative risk reduction ([2]; CURE trial, clopidogrel with aspirin vs placebo plus aspirin, unstable angina or non-ST segment elevation MI) is given as 20%.

In the case of `CC(C)Cc1ccc(C(C)C(=O)O)cc1` (stereo not shown) [ibuprofen], the “effect of concomitant administration on antiaggregatory activity of aspirin” value (platelets [3]; Catella-Lawson et al.) is listed as “reduce the antiaggregatory activity of aspirin”.

In the case of `CCCCCNC(=O)c1coc([C@H]2[C@@H](Cc3ccccc3CCC(=O)[O-])[C@@H]3CC[C@H]2O3)n1.[Na+]` [ifetroban, [1S-(1α,2α,3α,4α)]-2-[[3-[4-[(pentylamino)carbonyl]-2-oxazolyl]-7-oxabicyclo[2.2.1]hept-2-yl]methyl]benzenepropanoic acid], the “antithrombotic activity in P2Y12 heterozygous animals” value [4] is reported as “profound inhibition”, the “antithrombotic activity in wild type animals” value [4] is reported as “at least similar antithrombotic activity” and the levels of leukotrienes (leukotrienes) is reported as “maintained constant”. The “anti-aggregatory activity, arachidonic acid-induced platelet aggregation” value (platelets [5]) was “anti-aggregatory activity”, the “anti-aggregatory activity, collagen-induced platelet aggregation” value (platelets [6]; AERD patients, FIG. 8B) was “significant anti-aggregatory activity” and the “concentrations at which aspirin effects on collagen-induced platelet aggregation and thrombosis were reproduced” value (platelets [6]; AERD patients, FIG. 8B) was over 100 nM. The “anti-aggregatory activity, collagen-induced platelet aggregation” value (platelets [6]; healthy volunteers, FIG. 8A) was “significant anti-aggregatory activity”, the “concentrations at which aspirin effects on collagen-induced platelet aggregation and thrombosis were reproduced” value (platelets [6]; normal volunteers, FIG. 8A) was over 100 nM and the “inhibition of thrombosis on a clopidogrel background” value ([7]; 30 nM to 1 μM spiked into whole blood of normal volunteers treated with clopidogrel 75 mg/day for 2 weeks, FIG. 4) was “inhibited thrombosis to the same extent as aspirin”. For the same molecule, the “interaction with antithrombotic activity of clopidogrel” value ([7]; FIG. 4) was “synergized with the antithrombotic activity of clopidogrel”, the “antithrombotic activity versus aspirin” value ([7]; AERD patients, aspirin after desensitization, FIG. 7B) was “significant antithrombotic activity versus aspirin” and the “antithrombotic activity versus aspirin” value ([7]; healthy volunteers, FIG. 7A) was “significant antithrombotic activity versus aspirin”.

In the case of `COc1ccc2c(c1)c(CC(=O)O)c(C)n2C(=O)c1ccc(Cl)cc1` [indomethacin], the “effect on bleeding time prolongation activity of BM 13.177 promoted by dazoxiben” value [8] is given as “blocked the ability of dazoxiben”.

In the case of `O=C(O)CCCCO/N=C(/c1cccnc1)c1cccc(C(F)(F)F)c1` [ridogrel], the “enhancing fibrinolytic efficacy of streptokinase” value ([2]; RAPT study, 907 patients with acute myocardial infarction) is given as “not found to be superior to aspirin” and the “preventing new ischaemic events” value ([2]; RAPT study) is given as “may have been more efficacious than aspirin”.

For `CC(C)(C)N/C(=N\C#N)Nc1cccc(/C(=C\CCCC(=O)O)c2cccnc2)c1` [terbogrel, 5-hexenoic acid, 6-[3-[[(cyanoamino)[(1,1-dimethylethyl)amino]methylene]amino]phenyl]-6-(3-pyridinyl)-, (E-)], the “antiaggregatory activities in aspirin-treated individuals” value (platelets [3]; Zimmermann et al.) is listed as “additional antiaggregatory activities”.

For ortho-acetylsalicylic acid [aspirin], the “effect on prolongation in occlusion time by U63,557a with L636,499” value (coronary arteries) is given as “inhibited the prolongation in occlusion time”, the “antithrombotic activity in P2Y12 heterozygous animals” value [4] is given as “profound inhibition” and the “antithrombotic activity in wild type animals” value [4] is given as “at least similar antithrombotic activity”. The “individuals developing gastroduodenal ulcers” value ([2]; 75-325 mg doses) was 1 out of 10, the “reduction in vascular events” value ([2]; Antithrombotic Trialist's Collaboration, overall) was 22% and the “reduction in cardiovascular events” value [2, 9] was 15%. For the same molecule, the “reduction in myocardial infarction” value [2, 9] was 36%, the “incidence of cardiovascular death” value ([2]; Primary Prevention Project, 100 mg/d, at-risk patients, reduced from 1.4%) was 0.8% and the “reduction in adverse events” value ([2]; hundreds of randomized clinical trials, at-risk patients) was 20-25%. For the same molecule, the “asthmatic adults developing severe bronchoconstriction” value ([2]; oral challenge with aspirin or NSAID) was 5-20%, the levels of leukotrienes (leukotrienes) was “increased” and the “effect of prior aspirin treatment on dethrombotic activity of a TP antagonist” value (preformed thrombi; FIG. 5C) was “prevented by prior aspirin treatment”. The “interaction with antithrombotic activity of clopidogrel” value ([7]; FIG. 4) was “synergized with the antithrombotic activity of clopidogrel”.
